Test results published in ChEMBL document CHEMBL4321853, “Multitarget CFTR Modulators Endowed with Multiple Beneficial Side Effects for Cystic Fibrosis Patients: Toward a Simplified Therapeutic Approach †” (J Med Chem, 2019).
Converted amounts (≈) assume the structure as drawn. The source made the active and inactive calls. The calls are words filed in the database; no cut-off is given here.

Legend:
[1] = Cytotoxicity against human RD cells assessed as reduction in cell viability incubated for 2 to 3 days by MTS assay; type: cell-based
Enterovirus A71 = test: Antiviral activity against Enterovirus A71 infected in human RD cells assessed as reduction in cytopathic effect incubated for 2 to 3 days by MTS assay; type: functional, organism-based
[2] = Toxicity in C57BL/6 mouse assessed as inflammation of intestinal submucosa upto 180 mg/kg, sc observed after 4 and 72 hrs by hematoxylin and eosin staining based microscopy; type: organism-based; settings: in vivo
[3] = Toxicity in C57BL/6 mouse assessed as alveolar/interstitial inflammatory infiltrate upto 180 mg/kg, sc observed after 4 and 72 hrs by hematoxylin and eosin staining based microscopy; type: organism-based; settings: in vivo
[4] = Metabolic stability in human liver microsomes assessed as compound remaining at 50 uM incubated for 1 hr by UV/LC-MS analysis; type: ADME, Microsome; settings: read-out: Stability
[5] = Acute toxicity in C57BL/6 mouse assessed as body weight loss upto 180 mg/kg, sc observed for 15 days; type: organism-based; settings: in vivo, 360 h
[6] = Acute toxicity in C57BL/6 mouse assessed as effect on motor coordination upto 180 mg/kg, sc observed for 15 days; type: organism-based; settings: in vivo, 360 h
rhinovirus B14 = test: Antiviral activity against Human rhinovirus B14 infected in human RD cells assessed as reduction in cytopathic effect incubated for 2 to 3 days by MTS assay; type: functional, organism-based; settings: Rhinovirus B
[7] = tested on: Cystic fibrosis transmembrane conductance regulator (Homo sapiens), P13569 [F508del]; test: Corrector activity at CFTR F508del mutant (unknown origin) transfected in human HEK293 membrane cells assessed as increase in CFTR F508del level at 10 uM incubated for 24 hrs by using pHTomato probe based fluorescence inverted microscopic analysis; type: cell-based
Cystic fibrosis transmembrane conductance regulator (Homo sapiens), P13569 [F508del], sequence (P13569 as listed by the source): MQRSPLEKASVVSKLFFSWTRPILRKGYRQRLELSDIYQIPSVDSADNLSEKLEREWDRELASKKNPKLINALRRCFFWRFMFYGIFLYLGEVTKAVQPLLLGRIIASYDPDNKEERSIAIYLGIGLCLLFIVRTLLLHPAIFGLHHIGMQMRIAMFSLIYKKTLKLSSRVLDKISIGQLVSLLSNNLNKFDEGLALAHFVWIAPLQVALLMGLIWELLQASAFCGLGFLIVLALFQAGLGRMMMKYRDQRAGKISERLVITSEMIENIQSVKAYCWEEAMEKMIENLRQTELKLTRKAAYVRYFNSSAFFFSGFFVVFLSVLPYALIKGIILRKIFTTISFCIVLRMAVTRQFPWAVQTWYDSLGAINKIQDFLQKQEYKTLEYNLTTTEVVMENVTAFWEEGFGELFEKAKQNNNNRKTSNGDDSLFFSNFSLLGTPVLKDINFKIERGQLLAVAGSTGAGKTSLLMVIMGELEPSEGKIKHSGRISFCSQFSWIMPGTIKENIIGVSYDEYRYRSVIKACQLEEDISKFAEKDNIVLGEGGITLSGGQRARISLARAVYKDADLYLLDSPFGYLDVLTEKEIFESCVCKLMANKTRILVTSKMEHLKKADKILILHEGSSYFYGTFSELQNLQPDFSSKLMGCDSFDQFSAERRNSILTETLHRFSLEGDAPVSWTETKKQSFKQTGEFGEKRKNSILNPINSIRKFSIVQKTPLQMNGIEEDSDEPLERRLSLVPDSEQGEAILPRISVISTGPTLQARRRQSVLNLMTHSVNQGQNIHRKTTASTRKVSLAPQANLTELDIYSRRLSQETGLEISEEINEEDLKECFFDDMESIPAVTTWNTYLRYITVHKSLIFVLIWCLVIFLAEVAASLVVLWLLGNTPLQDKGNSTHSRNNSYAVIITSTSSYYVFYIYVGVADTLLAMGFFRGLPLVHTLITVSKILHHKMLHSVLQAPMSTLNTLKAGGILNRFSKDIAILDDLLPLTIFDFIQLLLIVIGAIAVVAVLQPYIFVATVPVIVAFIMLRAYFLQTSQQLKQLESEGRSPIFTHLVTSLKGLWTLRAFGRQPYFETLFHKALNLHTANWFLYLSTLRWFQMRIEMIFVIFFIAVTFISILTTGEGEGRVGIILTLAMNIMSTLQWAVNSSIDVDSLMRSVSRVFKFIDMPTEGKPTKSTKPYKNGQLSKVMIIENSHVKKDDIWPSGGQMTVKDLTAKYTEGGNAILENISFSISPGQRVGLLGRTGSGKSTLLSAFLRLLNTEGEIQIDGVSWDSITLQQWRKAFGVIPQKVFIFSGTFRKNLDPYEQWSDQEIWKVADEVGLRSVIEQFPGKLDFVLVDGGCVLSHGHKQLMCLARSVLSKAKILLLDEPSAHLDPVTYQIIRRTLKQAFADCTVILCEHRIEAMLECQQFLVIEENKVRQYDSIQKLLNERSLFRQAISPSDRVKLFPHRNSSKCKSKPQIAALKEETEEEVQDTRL

Albumin [8] = target: T1, Albumin (Homo sapiens, UniProt P02768); test: Binding affinity to human serum albumin assessed as dissociation constant incubated for 30 mins by spectrofluorimetry; type: ADME
T1 sequence (P02768 whole entry): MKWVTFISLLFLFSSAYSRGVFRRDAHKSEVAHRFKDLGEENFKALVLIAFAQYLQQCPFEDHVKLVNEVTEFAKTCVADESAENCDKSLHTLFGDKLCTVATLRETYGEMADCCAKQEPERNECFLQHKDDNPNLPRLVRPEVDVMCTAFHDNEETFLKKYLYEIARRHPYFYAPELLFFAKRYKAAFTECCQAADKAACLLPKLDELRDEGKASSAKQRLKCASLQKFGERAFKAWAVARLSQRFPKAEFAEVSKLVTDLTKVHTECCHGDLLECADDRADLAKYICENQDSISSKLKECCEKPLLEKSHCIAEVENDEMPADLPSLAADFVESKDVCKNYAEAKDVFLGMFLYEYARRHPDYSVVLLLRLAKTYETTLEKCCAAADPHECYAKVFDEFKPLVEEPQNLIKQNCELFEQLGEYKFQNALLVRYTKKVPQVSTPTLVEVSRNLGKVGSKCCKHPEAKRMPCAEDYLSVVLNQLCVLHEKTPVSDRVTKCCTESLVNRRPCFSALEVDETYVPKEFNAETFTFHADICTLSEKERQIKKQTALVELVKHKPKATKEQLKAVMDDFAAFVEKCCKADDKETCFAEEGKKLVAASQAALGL

[9] = Cytotoxicity against human RD cells infected with Human coxsackievirus B3 assessed as reduction in cell viability incubated for 2 to 3 days by MTS assay; type: cell-based
[10] = Acute toxicity in C57BL/6 mouse assessed as effect on behavior changes upto 180 mg/kg, sc observed for 15 days; type: organism-based; settings: in vivo, 360 h
[11] = Aqueous solubility of compound by LC-MS analysis; type: physicochemical; settings: buffer
[12] = Membrane retention of compound by PAMPA assay; type: ADME
[13] = Stability in human plasma assessed as half life measured upto 24 hrs by UV/LC-MS analysis; type: ADME, cell-free
[14] = Toxicity in C57BL/6 mouse assessed as effect on distribution of goblet cells upto 180 mg/kg, sc observed after 4 and 72 hrs by hematoxylin and eosin staining based microscopy; type: organism-based; settings: in vivo
rhinovirus A2 = test: Antiviral activity against Human rhinovirus A2 infected in human RD cells assessed as reduction in cytopathic effect incubated for 2 to 3 days by MTS assay; type: functional, organism-based; settings: Rhinovirus A
[15] = Toxicity in C57BL/6 mouse assessed as effect on columnar lining cell upto 180 mg/kg, sc observed after 4 and 72 hrs by hematoxylin and eosin staining based microscopy; type: organism-based; settings: in vivo
[16] = tested on: Cystic fibrosis transmembrane conductance regulator (Homo sapiens), P13569 [F508del]; test: Corrector activity at CFTR F508del mutant (unknown origin) transfected in human HEK293 membrane cells assessed as increase in CFTR level at 3 uM incubated for 24 hrs by using pHTomato probe based fluorescence inverted microscopic analysis; type: cell-based
Albumin [17] = target: T1, Albumin; test: Binding affinity to human serum albumin assessed as maximum binding at 0.1 to 500 uM incubated for 30 mins by spectrofluorimetry; type: ADME; settings: isolated protein, 0.5 h
[18] = Cytotoxicity against human RD cells infected with Human rhinovirus B14 assessed as reduction in cell viability incubated for 2 to 3 days by MTS assay; type: cell-based
[19] = Cytotoxicity against human RD cells infected with Human rhinovirus A2 assessed as reduction in cell viability incubated for 2 to 3 days by MTS assay; type: cell-based
[20] = Selectivity index, ratio of CC50 for human RD cells to EC50 for Enterovirus A71 infected in human RD cells; type: toxicity, cell-based; settings: read-out: Ratio CC50/EC50
[21] = Toxicity in C57BL/6 mouse assessed as effect on hepatic labyrinth of hepatocytes upto 180 mg/kg, sc observed after 4 and 72 hrs by hematoxylin and eosin staining based microscopy; type: organism-based; settings: in vivo
[22] = Toxicity in C57BL/6 mouse assessed as epithelial hyperplasia upto 180 mg/kg, sc observed after 4 and 72 hrs by hematoxylin and eosin staining based microscopy; type: organism-based; settings: in vivo
[23] = Toxicity in C57BL/6 mouse assessed as effect on alveolar microstructure upto 180 mg/kg, sc observed after 4 and 72 hrs by hematoxylin and eosin staining based microscopy; type: organism-based; settings: in vivo
Coxsackievirus B3 = test: Antiviral activity against Human coxsackievirus B3 infected in human RD cells assessed as reduction in cytopathic effect incubated for 2 to 3 days by MTS assay; type: functional, organism-based; settings: Enterovirus B
[24] = tested on: Cystic fibrosis transmembrane conductance regulator (Homo sapiens), P13569 [F508del]; test: Corrector activity at CFTR F508del mutant (unknown origin) transfected in human HEK293 membrane cells assessed as increase in anion permeability at 3 uM incubated for 24 hrs by using YFP probe based fluorescence inverted microscopic analysis; type: cell-based
[25] = Toxicity in C57BL/6 mouse assessed as hemorrhage in lung upto 180 mg/kg, sc observed after 4 and 72 hrs by hematoxylin and eosin staining based microscopy; type: organism-based; settings: in vivo
[26] = Apparent permeability of compound by PAMPA assay; type: ADME
[27] = target: Phosphatidylinositol 4-kinase beta (Homo sapiens, UniProt Q9UBF8); test: Inhibition of recombinant human full length His6-tagged PI4KIII beta expressed in Sf9 cells incubated for 0 mins in presence of [gamma-33P ATP] by scintillation counting method
Phosphatidylinositol 4-kinase beta, sequence (Q9UBF8 whole entry): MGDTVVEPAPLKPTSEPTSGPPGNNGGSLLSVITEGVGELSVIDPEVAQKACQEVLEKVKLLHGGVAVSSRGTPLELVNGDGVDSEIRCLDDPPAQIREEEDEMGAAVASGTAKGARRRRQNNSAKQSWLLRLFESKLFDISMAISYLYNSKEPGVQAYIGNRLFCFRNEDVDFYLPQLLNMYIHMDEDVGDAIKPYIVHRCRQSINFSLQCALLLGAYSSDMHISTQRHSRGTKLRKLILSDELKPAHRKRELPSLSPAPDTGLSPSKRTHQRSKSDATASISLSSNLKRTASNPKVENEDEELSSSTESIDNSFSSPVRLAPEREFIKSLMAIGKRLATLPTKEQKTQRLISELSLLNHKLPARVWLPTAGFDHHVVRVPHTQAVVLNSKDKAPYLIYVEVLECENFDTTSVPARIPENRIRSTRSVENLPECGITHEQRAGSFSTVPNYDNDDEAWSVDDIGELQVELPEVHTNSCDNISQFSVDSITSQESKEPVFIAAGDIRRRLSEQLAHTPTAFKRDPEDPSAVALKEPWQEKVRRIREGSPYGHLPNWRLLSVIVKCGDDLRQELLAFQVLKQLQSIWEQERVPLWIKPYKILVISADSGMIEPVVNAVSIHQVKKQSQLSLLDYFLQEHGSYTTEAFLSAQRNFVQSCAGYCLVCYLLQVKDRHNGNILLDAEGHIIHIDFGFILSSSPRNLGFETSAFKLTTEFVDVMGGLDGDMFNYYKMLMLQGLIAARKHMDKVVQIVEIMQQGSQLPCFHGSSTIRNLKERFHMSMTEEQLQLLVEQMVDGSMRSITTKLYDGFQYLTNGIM

[28] = Enterovirus A, RD, read-out: EC50

## Cc1nc(NC(=O)C(C)(C)C)sc1-c1csc(NCCC(=O)O)n1
[1]
  CC50: > 271 µM
Enterovirus A71; [28]
  EC50: 6.48 µM

## CC(=O)Nc1nc(C)c(-c2csc(NC3CCCCC3)n2)s1
[1]
  CC50: 25.5 µM
Enterovirus A71; [28]
  EC50: 1.1 µM

## Cc1nc(NC(=O)C(C)(C)C)sc1-c1csc(NCCCC(=O)O)n1
[1]
  CC50: 261 µM
Enterovirus A71; [28]
  EC50: 7.27 µM

## C=CC(=O)Nc1nc(-c2sc(NC(C)=O)nc2C)cs1
[1]
  CC50: 6.01 µM
Enterovirus A71; [28]
  EC50: 1.89 µM

## CC(=O)c1cccc(N(CCO)c2nc(-c3sc(NC(=O)C(C)(C)C)nc3C)cs2)c1
[2]
  Activity: Non-Toxic
[3]
  Activity: Non-Toxic
[4]
  remaining at 1 h, 50 µM: 98%
[5]
  Activity: Non-Toxic
[1]
  CC50: 28.9 µM
[6]
  Activity: Non-Toxic
Rhinovirus B14
  EC50: > 9.1 µM
[7]
  Activity: Active
Albumin [8]
  Kd: 18.5 µM
[9]
  CC50: > 218 µM
[10]
  Activity: Non-Toxic
[11]; read-out: solubility
  solubility: 0.1 µM (≈ 0.0459 µg/mL)
Enterovirus A71; Enterovirus A, RD
  EC90: 5.78 µM
Enterovirus A71; [28]
  EC50: < 0.43 µM
[12]
  R%: < 0.1%
[13]
  half-life: 24.2 days
[14]
  Activity: Non-Toxic
Rhinovirus A2
  EC50: 6.1 µM
[15]
  Activity: Non-Toxic
[16]
  Activity: Active
Albumin [17]
  Bmax: 81.73
[18]
  CC50: 16.8 µM
[19]
  CC50: 16.8 µM
[20]
  selectivity ratio: > 67.2
[21]
  Activity: Non-Toxic
[22]
  Activity: Non-Toxic
[23]
  Activity: Non-Toxic
Coxsackievirus B3
  EC50: 6.6 µM
[24]
  Activity: Active
[25]
  Activity: Non-Toxic

## CC(=O)Nc1nc(C)c(-c2csc(N(C)C3CCCCC3)n2)s1
[1]
  CC50: 19.4 µM
Enterovirus A71; [28]
  EC50: 0.88 µM

## CC(=O)c1cccc(Nc2nc(-c3sc(NC(=O)c4ccccc4)nc3C)cs2)c1
[16]
  Activity: Active

## CC(=O)Nc1nc(C)c(-c2csc(NCCO)n2)s1
[1]
  CC50: 333 µM
Enterovirus A71; [28]
  EC50: 12.6 µM

## Cc1nc(NC(=O)C(C)(C)C)sc1-c1csc(NCC(=O)O)n1
[1]
  CC50: > 282 µM
Enterovirus A71; [28]
  EC50: 5.31 µM

## Cc1nc(NC(=O)C(C)(C)C)sc1-c1csc(N(CCO)C2CCCCC2)n1
[1]
  CC50: 4.46 µM
[7]
  Activity: Active
Enterovirus A71; [28]
  EC50: 4.96 µM
[16]
  Activity: Active
[24]
  Activity: Active

## CC(=O)Nc1nc(C)c(-c2csc(NC(=O)CBr)n2)s1
Enterovirus A71
  EC50: Not Active

## CC(=O)Nc1nc(C)c(-c2csc(NC3CCC(C)CC3)n2)s1 (stereo not given)
[1]
  CC50: 10.9 µM
Enterovirus A71; [28]
  EC50: 0.34 µM

## CC(=O)Nc1nc(C)c(-c2csc(N(CCO)C3CCCCC3)n2)s1
[1]
  CC50: 16.4 µM
Rhinovirus B14
  EC50: 6.24 µM
[9]
  CC50: 20.8 µM
Enterovirus A71; [28]
  EC50: 1.1 µM
Rhinovirus A2
  EC50: > 263 µM
[18]
  CC50: 4.51 µM
[19]
  CC50: > 4.51 µM
Coxsackievirus B3
  EC50: 16.1 µM

## CCC(=O)Nc1nc(-c2sc(NC(C)=O)nc2C)cs1
Enterovirus A71
  EC50: Not Active

## Cc1nc(NC(=O)OC(C)(C)C)sc1-c1csc(NCCO)n1
[1]
  CC50: > 421 µM
Enterovirus A71; [28]
  EC50: 11.4 µM

## Cc1nc(NC(=O)c2ccccc2)sc1-c1csc(NCCO)n1
Enterovirus A71
  EC50: Not Active

## CC(=O)Nc1nc(C)c(-c2csc(NC(=O)/C=C/C(C)C)n2)s1
[1]
  CC50: 172 µM
Enterovirus A71; [28]
  EC50: 107 µM

## Cc1nc(NC(=O)C(C)(C)C)sc1-c1csc(NCCO)n1
[1]
  CC50: 361 µM
Rhinovirus B14
  EC50: 3.8 µM
[7]
  Activity: Active
[9]
  CC50: > 293 µM
Enterovirus A71; [28]
  EC50: 1.83 µM
Rhinovirus A2
  EC50: 5.4 µM
[16]
  Activity: Active
[18]
  CC50: 41.2 µM
[19]
  CC50: 41.2 µM
Coxsackievirus B3
  EC50: 2.3 µM
[24]
  Activity: inactive

## CC(=O)c1cccc(Nc2nc(-c3sc(NC(=O)OC(C)(C)C)nc3C)cs2)c1
[16]
  Activity: Active

## CC(=O)Nc1nc(C)c(-c2csc(N(CCO)c3cccc(C(C)=O)c3)n2)s1
Enterovirus A71
  EC50: Not Active

## COc1ccc(Cl)cc1Nc1nc(-c2sc(NC(=O)c3ccccc3)nc2C)cs1
[4]
  remaining at 1 h, 50 µM: 98%
Albumin [8]
  Kd: 11.7 µM
[11]
  solubility: 0.02 µM (≈ 0.00914 µg/mL)
[12]
  R%: 37.9%
[13]
  half-life: 3.61 days
Albumin [17]
  Bmax: 88.82
[26]
  Papp: 8.1 ×10⁻⁶ cm/s

## Cc1nc(NC(=O)C(C)(C)C)sc1-c1csc(Nc2cccc(C(=O)O)c2)n1
[1]
  CC50: 32.1 µM
Rhinovirus B14
  EC50: 15.3 µM
[7]
  Activity: Active
[9]
  CC50: 111 µM
Enterovirus A71; [28]
  EC50: 0.42 µM
Rhinovirus A2
  EC50: 9.7 µM
[16]
  Activity: Active
[18]
  CC50: 36.3 µM
[19]
  CC50: 36.3 µM
Coxsackievirus B3
  EC50: 17 µM
[24]
  Activity: Active

## C=CS(=O)(=O)Nc1nc(-c2sc(NC(C)=O)nc2C)cs1
Enterovirus A71; [28]
  EC50: > 290 µM
[27]
  IC50: Not Active
